# Results from BindingDB's records for PubMed 35247754 (China Pharmaceutical University, 2022).
# Assays:
# [1] = biological target: T1, Sentrin-specific protease 6 (Homo sapiens, UniProt Q9GZR1); experiment: Inhibition of human SENP6 using AMC-tagged SUMO1 as substrate incubated for 10 mins by fluorescence based analysis
# T1 sequence (Q9GZR1 whole entry): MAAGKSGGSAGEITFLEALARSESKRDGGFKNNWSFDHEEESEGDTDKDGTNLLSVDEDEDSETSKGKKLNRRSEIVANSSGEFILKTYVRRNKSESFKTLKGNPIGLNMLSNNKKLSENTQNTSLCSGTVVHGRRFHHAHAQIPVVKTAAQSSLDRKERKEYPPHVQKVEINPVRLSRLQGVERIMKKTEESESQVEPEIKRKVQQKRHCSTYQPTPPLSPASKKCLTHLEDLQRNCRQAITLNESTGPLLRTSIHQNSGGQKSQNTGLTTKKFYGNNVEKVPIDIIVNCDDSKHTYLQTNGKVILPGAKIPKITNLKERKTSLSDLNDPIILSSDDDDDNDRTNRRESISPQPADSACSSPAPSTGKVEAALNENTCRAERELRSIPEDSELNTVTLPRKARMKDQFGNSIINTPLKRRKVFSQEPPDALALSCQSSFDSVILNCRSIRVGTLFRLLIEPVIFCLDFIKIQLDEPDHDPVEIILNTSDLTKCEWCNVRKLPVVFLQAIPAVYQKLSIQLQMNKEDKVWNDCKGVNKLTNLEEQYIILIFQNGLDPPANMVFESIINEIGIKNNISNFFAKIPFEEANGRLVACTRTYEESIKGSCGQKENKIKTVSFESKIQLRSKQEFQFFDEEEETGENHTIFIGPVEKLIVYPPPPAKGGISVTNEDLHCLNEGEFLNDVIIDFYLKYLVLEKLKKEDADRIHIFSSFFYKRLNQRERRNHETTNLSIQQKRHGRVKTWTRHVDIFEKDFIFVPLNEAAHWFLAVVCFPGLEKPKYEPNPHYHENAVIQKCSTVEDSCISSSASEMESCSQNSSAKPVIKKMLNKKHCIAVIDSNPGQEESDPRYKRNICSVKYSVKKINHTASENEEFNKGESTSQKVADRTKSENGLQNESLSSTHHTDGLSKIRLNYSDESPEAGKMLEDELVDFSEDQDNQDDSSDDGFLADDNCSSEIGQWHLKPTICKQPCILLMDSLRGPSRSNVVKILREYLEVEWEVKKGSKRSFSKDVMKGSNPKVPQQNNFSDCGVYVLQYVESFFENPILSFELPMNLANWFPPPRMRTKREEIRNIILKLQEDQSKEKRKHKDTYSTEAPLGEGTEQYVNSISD
# [2] = biological target: T2, Sentrin-specific protease 1 (Homo sapiens, UniProt Q9P0U3); experiment: Inhibition of human SENP1 using AMC-tagged SUMO1 as substrate incubated for 10 mins by fluorescence based analysis
# T2 sequence (Q9P0U3 whole entry): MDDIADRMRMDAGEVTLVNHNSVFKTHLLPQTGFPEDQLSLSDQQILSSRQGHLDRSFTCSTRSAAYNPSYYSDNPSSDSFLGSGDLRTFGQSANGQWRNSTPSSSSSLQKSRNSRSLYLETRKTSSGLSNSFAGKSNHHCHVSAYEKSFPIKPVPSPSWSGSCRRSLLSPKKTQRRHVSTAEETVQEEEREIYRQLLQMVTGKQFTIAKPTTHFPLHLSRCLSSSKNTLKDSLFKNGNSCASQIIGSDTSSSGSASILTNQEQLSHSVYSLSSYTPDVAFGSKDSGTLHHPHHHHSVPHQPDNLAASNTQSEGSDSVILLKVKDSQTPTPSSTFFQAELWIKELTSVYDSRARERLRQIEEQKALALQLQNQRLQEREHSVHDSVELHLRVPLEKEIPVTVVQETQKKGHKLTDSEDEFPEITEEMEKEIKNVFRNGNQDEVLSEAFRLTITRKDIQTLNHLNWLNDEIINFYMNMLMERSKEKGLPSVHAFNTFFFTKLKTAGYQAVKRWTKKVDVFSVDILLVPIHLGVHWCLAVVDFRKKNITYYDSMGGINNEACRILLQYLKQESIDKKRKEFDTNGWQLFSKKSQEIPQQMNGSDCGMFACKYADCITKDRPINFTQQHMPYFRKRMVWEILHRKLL
# [3] = biological target: T3, Sentrin-specific protease 2 (Homo sapiens, UniProt Q9HC62); experiment: Inhibition of human SENP2 using AMC-tagged SUMO1 as substrate incubated for 10 mins by fluorescence based analysis
# T3 sequence (Q9HC62 whole entry): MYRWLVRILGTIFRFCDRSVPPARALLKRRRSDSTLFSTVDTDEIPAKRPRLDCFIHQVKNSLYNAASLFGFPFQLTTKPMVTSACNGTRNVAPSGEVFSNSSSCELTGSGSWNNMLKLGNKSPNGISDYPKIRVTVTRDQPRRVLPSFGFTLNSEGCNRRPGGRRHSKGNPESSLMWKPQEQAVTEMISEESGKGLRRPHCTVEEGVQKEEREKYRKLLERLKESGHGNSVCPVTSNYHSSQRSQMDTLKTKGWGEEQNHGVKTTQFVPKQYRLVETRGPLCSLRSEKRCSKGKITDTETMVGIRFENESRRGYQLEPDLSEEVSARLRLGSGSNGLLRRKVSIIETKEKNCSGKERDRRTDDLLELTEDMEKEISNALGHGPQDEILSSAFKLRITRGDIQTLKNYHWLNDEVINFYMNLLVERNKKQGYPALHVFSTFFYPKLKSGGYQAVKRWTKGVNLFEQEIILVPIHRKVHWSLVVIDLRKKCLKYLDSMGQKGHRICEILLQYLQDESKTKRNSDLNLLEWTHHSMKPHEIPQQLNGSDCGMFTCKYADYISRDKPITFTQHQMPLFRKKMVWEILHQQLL
smiles,measurement,setting,value
COC1=C(N)C(=O)c2nc(-c3nc(C(=O)O)c(C)c(-c4ccc(OC)c(OC)c4O)c3N)ccc2C1=O [CHEBI:9287],IC50,[1],5.2 µM
same,IC50,[2],0.52 µM
same,IC50,[3],6.9 µM
